Measurements reported in paper PMC8330742, “New benzothieno[2,3-c]pyridines as non-steroidal CYP17 inhibitors: design, synthesis, anticancer screening, apoptosis induction, and in silico ADME profile studies” (Journal of Enzyme Inhibition and Medicinal Chemistry, 2021).
Like-named read-outs stand apart in the source and are kept apart here.

What was measured:
MALME-3M = assay: NCI-60 SRB screen; assay type: cell-based, human; details: Homo sapiens, single dose 10^−5 M, read-out: Growth inhibition (%)
SNB-75 = assay: NCI-60 SRB screen; assay type: cell-based, human; details: Homo sapiens, single dose 10^−5 M, read-out: Growth inhibition (%)
RPMI-8226 = assay: NCI-60 SRB screen; assay type: cell-based; details: Homo sapiens, single dose 10^−5 M, read-out: Growth inhibition (%)
A498 = assay: NCI-60 SRB screen; assay type: cell-based, human; details: Homo sapiens, single dose 10^−5 M, read-out: Growth inhibition (%)
SF-539 = assay: NCI-60 SRB screen; assay type: cell-based, human; details: Homo sapiens, single dose 10^−5 M, read-out: Growth inhibition (%)
U251 = assay: NCI-60 SRB screen; assay type: cell-based, human; details: Homo sapiens, U-251, single dose 10^−5 M, read-out: Growth inhibition (%)
SNB-19 = assay: NCI-60 SRB screen; assay type: cell-based; details: Homo sapiens, single dose 10^−5 M, read-out: Growth inhibition (%)
CCRF-CEM = assay: NCI-60 SRB screen; assay type: cell-based; details: Homo sapiens, single dose 10^−5 M, read-out: Growth inhibition (%)
MDA-MB-231/ATCC = assay: NCI-60 SRB screen; assay type: cell-based, human; details: Homo sapiens, single dose 10^−5 M, read-out: Growth inhibition (%)
MDA-MB-468 = assay: NCI-60 SRB screen; assay type: cell-based, human; details: Homo sapiens, single dose 10^−5 M, read-out: Growth inhibition (%)
PC-3 = assay: NCI-60 SRB screen; assay type: cell-based, human; details: Homo sapiens, single dose 10^−5 M, read-out: Growth inhibition (%)
BT-549 = assay: NCI-60 SRB screen; assay type: cell-based, human; details: Homo sapiens, single dose 10^−5 M, read-out: Growth inhibition (%)
OVCAR-5 = assay: NCI-60 SRB screen; assay type: cell-based, human; details: Homo sapiens, single dose 10^−5 M, read-out: Growth inhibition (%)
T-47D = assay: NCI-60 SRB screen; assay type: cell-based, human; details: Homo sapiens, T47D, single dose 10^−5 M, read-out: Growth inhibition (%)
DU-145 = assay: NCI-60 SRB screen; assay type: cell-based, human; details: Homo sapiens, single dose 10^−5 M, read-out: Growth inhibition (%)
MCF7 = assay: NCI-60 SRB screen; assay type: cell-based, human; details: Homo sapiens, read-out: Growth inhibition (%)
[1] = single dose 10^−5 M, MCF-7, Breast cancer

Row | SMILES | inhibition at 10 µM (MALME-3M) [%] | inhibition at 10 µM (RPMI-8226; RPMI-8226) [%] | inhibition at 10 µM (A498; A498) [%] | melting point [°C] | inhibition at 10 µM (CCRF-CEM) [%] | inhibition at 10 µM (MDA-MB-231/ATCC; MDA-MB-231, MDAMB231/ATCC) [%] | inhibition at 10 µM (MDA-MB-468; MDA-MB-468) [%] | inhibition at 10 µM (PC-3; PC-3) [%] | inhibition at 10 µM (BT-549; BT-549) [%] | inhibition at 10 µM (OVCAR-5; OVCAR-5) [%] | inhibition at 10 µM (T-47D) [%] | inhibition at 10 µM (DU-145; DU-145) [%] | inhibition at 10 µM (MCF7; MCF-7, single dose 10^−5 M) [%] | inhibition at 10 µM (MDA-MB-231/ATCC; MDA-MB 231/ATCC, Breast cancer) [%] | inhibition at 10 µM (MDA-MB-468; MDA-MB-468, Breast cancer) [%] | inhibition at 10 µM (MALME-3M; Melanoma) [%] | inhibition at 10 µM (SNB-75; SNB-75, CNS cancer) [%] | inhibition at 10 µM (RPMI-8226; RPMI-8226, Leukaemia) [%] | inhibition at 10 µM (A498; A498, Renal cancer) [%] | inhibition at 10 µM (PC-3; PC-3, Prostate cancer) [%] | also measured
1 | O=C1C(=Cc2ccccc2[N+](=O)[O-])Sc2c(F)cccc21 [Compound 2c, 7-Fluoro-2-(2-nitrobenzylidene)[1]benzothiophen-3(2H)-one] | 12.6 | 30.6 | 55.1 | 170 to 172 | 26.3 |  |  |  |  |  |  |  |  |  |  |  |  |  |  |  | inhibition at 10 µM (SNB-75; SNB-75): -1.55%; inhibition at 10 µM (SF-539; SF-539): 3.65%; inhibition at 10 µM (U251; U251): 32.5%; inhibition at 10 µM (SNB-19; SNB-19): 14.2%
2 | O=C1NC(c2cccc([N+](=O)[O-])c2)c2sc3c(F)cccc3c2C1Cl (stereo not drawn) [Compound 4d, 4-Chloro-8-fluoro-1-(3-nitrophenyl)-1,2-dihydro[1]benzothieno[2,3-c] pyridine-3(4H)-one] | 4.62 | 9.61 | -0.03 | 160 to 162 | 1.99 | 5.22 | -8.27 | 3.8 | 3.62 | -3.92 | 8.7 | -8.57 | 8.44 |  |  |  |  |  |  |  | 
3 | N#CC1C(=O)NC(c2cccc([N+](=O)[O-])c2)c2sc3c(F)cccc3c21 (stereo not drawn) [Compound 5d, 4-Cyano-8-fluoro-1-(3-nitrophenyl)-1,2-dihydro[1]benzothieno[2,3-c] pyridin-3(4H)-one] | -12.1 | 14 | 17.3 | 180 to 182 | -0.08 | 19.2 | -6.48 | 13.2 | 8.35 | 1.54 | 20.1 | -10 | 15.1 |  |  |  |  |  |  |  | 
4 | CCN1CCN(C2C(=O)NC(c3cccc([N+](=O)[O-])c3)c3sc4c(F)cccc4c32)CC1 (stereo not drawn) [Compound 6a, 4-(4-Ethylpiperazin-1-yl)-8-fluoro-1-(3-nitrophenyl)-1,2-dihydro[1]benzo thieno[2,3-c]pyridin-3(4H)-one] | -3.44 | 4.93 | 0.35 | 240 to 241 | -2.46 | -0.79 | -7.69 | 9.37 | -0.58 | -3.55 | -1.25 | -10.8 | 0.6 |  |  |  |  |  |  |  | 
5 | O=C1NC(c2cccc([N+](=O)[O-])c2)c2sc3c(F)cccc3c2C1N1CCOCC1 (stereo not drawn) [Compound 6b, 8-Fluoro-4-morpholino-1(3-nitrophenyl)-1,2-dihydro[1]benzothieno[2,3-c]pyridin-3(4H)-one] | 0.18 | 14.4 | 13.5 | 250 to 251 | -0.89 | 7.92 | -3.26 | 10.4 | 1.66 | -6.35 | 15.4 | -9.4 | 10.3 |  |  |  |  |  |  |  | 
6 | O=C1NC(c2cccc([N+](=O)[O-])c2)c2sc3c(F)cccc3c2C1N1CCCCC1 (stereo not drawn) [Compound 6c, 8-Fluoro-1-(3-nitrophenyl)-4-(piperidin-1-yl)-1,2-dihydro[1]benzothieno [2,3-c]pyridin-3(4H)-one] | -1.85 | 5.15 | 7.34 |  | 1.84 | 0.28 | -9.31 | 8.67 | 1.61 | -1.56 | 8.12 | -9.9 | 10.2 |  |  |  |  |  |  |  | 
7 | O=[N+]([O-])c1cccc(C2NC(Cl)=C(Cl)c3c2sc2c(F)cccc32)c1 (stereo not drawn) [Compound 7a, 3,4-Dichloro-8-fluoro-1-(3-nitrophenyl)-1,2-dihydro[1]benzothieno[2,3-c] pyridine] | -2.96 | 11.5 | 3.36 | 120 to 122 | 2.12 | 8.09 | -4.71 | 3.11 | 0.77 | 3.21 | 17.7 | -4.75 | 5.05 |  |  |  |  |  |  |  | 
8 | CCN1CCN(C2=C(Cl)c3c(sc4c(F)cccc34)C(c3cccc([N+](=O)[O-])c3)N2)CC1 (stereo not drawn) [Compound 8a, 4-Chloro-3–(4-ethylpiperzin-1-yl)-8-fluoro-1-(3-nitrophenyl)-1,2-dihydro [1]benzothieno[2,3-c]pyridine] |  |  |  |  |  |  |  |  |  |  |  |  |  | 12 | -9.64 | 1.57 | 11.8 | 15.4 | 0.93 | 7.7 | inhibition at 10 µM (BT-549; BT-549, Breast cancer): 9.38%; inhibition at 10 µM (OVCAR-5; OVCAR-5, Ovarian cancer): 1.9%; inhibition at 10 µM (SF-539; SF-539, CNS cancer): 4.31%; inhibition at 10 µM (T-47D; Breast cancer): 11.1%; inhibition at 10 µM (U251; U251, CNS cancer): 6.16%; inhibition at 10 µM (DU-145; DU-145, Prostate cancer): -7.24%; inhibition at 10 µM (SNB-19; SNB-19, CNS cancer): 1.26%; inhibition at 10 µM (CCRF-CEM; Leukaemia): 1.89%; inhibition at 10 µM (MCF7; [1]): 4.08%
9 | CCN1CCN(C2=C(C#N)c3c(sc4c(F)cccc34)C(c3cccc([N+](=O)[O-])c3)N2)CC1 (stereo not drawn) [Compound 8d, 4-Cyano-3-(4-ethylpiperazin-1-yl)-8-fluoro-1-(3-nitrophenyl)-1,2-dihydro [1]benzothieno[2,3-c]pyridine] |  |  |  |  |  |  |  |  |  |  |  |  |  | 19.8 | -2.69 | -7.54 | 8.49 | 1.72 | 12.1 | 9.1 | inhibition at 10 µM (BT-549; BT-549, Breast cancer): 1.51%; inhibition at 10 µM (OVCAR-5; OVCAR-5, Ovarian cancer): -4.1%; inhibition at 10 µM (SF-539; SF-539, CNS cancer): 6.11%; inhibition at 10 µM (T-47D; Breast cancer): 22.3%; inhibition at 10 µM (U251; U251, CNS cancer): 0.9%; inhibition at 10 µM (DU-145; DU-145, Prostate cancer): -11.2%; inhibition at 10 µM (SNB-19; SNB-19, CNS cancer): -1.27%; inhibition at 10 µM (CCRF-CEM; Leukaemia): -0.37%; inhibition at 10 µM (MCF7; [1]): 9.44%
10 | N#CC1=C(N2CCOCC2)NC(c2cccc([N+](=O)[O-])c2)c2sc3c(F)cccc3c21 (stereo not drawn) [Compound 8e, 4-Cyano-3-(4-morpholino)-8-fluoro-1-(3-nitrophenyl)-1,2-dihydro [1]benzothieno[2,3-c]pyridine] |  |  |  |  |  |  |  |  |  |  |  |  |  | 13.4 | -11 | -7.29 | 7.28 | 6.66 | 3.17 | 12.3 | inhibition at 10 µM (BT-549; BT-549, Breast cancer): 1.14%; inhibition at 10 µM (OVCAR-5; OVCAR-5, Ovarian cancer): 0.99%; inhibition at 10 µM (SF-539; SF-539, CNS cancer): 3.33%; inhibition at 10 µM (T-47D; Breast cancer): -4.79%; inhibition at 10 µM (U251; U251, CNS cancer): -2.2%; inhibition at 10 µM (DU-145; DU-145, Prostate cancer): -12.3%; inhibition at 10 µM (SNB-19; SNB-19, CNS cancer): -0.92%; inhibition at 10 µM (CCRF-CEM; Leukaemia): 6.67%; inhibition at 10 µM (MCF7; [1]): -1.68%
11 | N#CC1=C(Nc2ccccc2F)NC(c2cccc([N+](=O)[O-])c2)c2sc3c(F)cccc3c21 (stereo not drawn) [Compound 10, 4-Cyano-8-fluoro-3((2-fluorophenyl)amino)-1–(3-nitrophenyl)-1,2-dihydro[1]benzothieno[2,3-c]pyridine] |  |  |  |  |  |  |  |  |  |  |  |  |  | 17.4 | -7.35 | -15.1 | 10.1 | 1.46 | 3.94 | 7.8 | inhibition at 10 µM (BT-549; BT-549, Breast cancer): 1.04%; inhibition at 10 µM (OVCAR-5; OVCAR-5, Ovarian cancer): -3.49%; inhibition at 10 µM (SF-539; SF-539, CNS cancer): 6.04%; inhibition at 10 µM (T-47D; Breast cancer): -2.94%; inhibition at 10 µM (U251; U251, CNS cancer): -9.9%; inhibition at 10 µM (DU-145; DU-145, Prostate cancer): -8.61%; inhibition at 10 µM (SNB-19; SNB-19, CNS cancer): -3.45%; inhibition at 10 µM (CCRF-CEM; Leukaemia): 2.96%; inhibition at 10 µM (MCF7; [1]): 4.92%
